Source: patent publication US10780061B2, “Composition comprising farnesol and use thereof” (Daegu Gyongbuk Institute of Science and Technology, priority 2014, dated 2020)

Key:
C2C12 myoblasts = test: Immunoblot of PGC-1α and differentiation markers in farnesol-treated myoblasts; assay type: cell-based
Description: DMEM (Dulbecco's Modified Eagle Medium) supplemented with 10% fetal bovine serum is used as a growth medium for culture of C2C12 myoblasts, and DMEM supplemented with 2% horse serum is used as a differentiation medium for differentiation of muscle cells. To induce differentiation of C2C12 myoblasts into muscle cells, 0.1 μM farnesol dissolved in DMSO or various concentrations of farnesol (0.1, 1, 10, 100 uM) are added, and DMSO is only added to a control group. The cells are cultured for 48 hours to induce differentiation, and then a lysis buffer (20 mM Tris-HCl, pH 8, 150 mM NaCl, 1% Triton X, Proteinase Inhibitor) is added to the harvested cells to allow lysis for 30 minutes, followed by centrifugation at 13,000 rpm for 30 minutes. The amount of protein in the cell lysis sample is quantified and an equal amount of protein is subjected to 8% SDS-PAGE. The protein is transferred onto a PVDF membrane, and then incubated in a blocking buffer containing 5% skim milk for 1 hour. HRP (horseradish peroxidase)-conjugated rabbit antibodies specific to individual proteins, diluted in 5% BSA, are reacted with the membrane at 4° C. for 12 hours, and then the membrane is washed with a wash buffer for 5 minutes three times. Thereafter, the membrane is exposed to X-ray film using an ECL reagent (Roche) to confirm protein expression levels.

PGC-1α = test: Immunoblotting of tibialis anterior muscles of mice administered with farnesol; assay type: in vivo, mouse; settings: 5 month-old mice, feed with 0.5% w/w farnesol, 5 weeks
Description: (§1) 5 month-old C57BL/6 male mice (weighing 22 g) are maintained at a temperature of 22±2° C., humidity of 55±5%, and a light-dark cycle of 12:12 hours. An animal feed containing 0.5% w/w farnesol was supplied by Jung-Ang Lab Animal Inc. A control group is fed with a feed equivalent to a general feed for experimental animals, excluding that no 0.5% w/w farnesol is contained. They are allowed free access to drinking water. Skeletal muscles were separated from the mice and control mouse fed with farnesol for 5 weeks, and subjected to immunoblot analysis. In all the following Examples, administration or feeding of mouse is performed as above, unless otherwise mentioned. […] In this specification, assuming that human life expectancy of 100 years corresponds to mouse life expectancy of 3 years, human life expectancy is estimated from the relationship.

[1] = tested on: lower limb muscles (GAS, SOL, EDL, TA); test: Observation of lower limb muscles of mice administered with farnesol; assay type: in vivo, mouse; settings: mice fed with farnesol for 5 weeks
Description: as §1, with “relationship. […] Herein, GAS indicates gastrocnemius muscle, SOL indicates soleus muscle, EDL indicates extensor digitorum longus muscle, and TA indicates tibialis anterior muscle. Gastrocnemius muscle exists as a white muscle because glycolytic muscle fibers are mainly distributed therein.” for “relationship.”

[2] = tested on: extensor digitorum longus muscle fibers; test: Immunohistochemistry of muscle fiber type (MHC2a/MHC2b) in extensor digitorum longus muscle; assay type: in vivo, mouse
From the text: To examine distribution of 2a type muscle fiber and 2b type muscle fiber, extensor digitorum longus muscles of mice administered with farnesol for 5 weeks are subjected to immunohistochemistry. 2a type muscle fiber is an oxidative muscle fiber type, and there are two types: aerobic, that is, oxygen-dependent energy source and anaerobic, that is, oxygen-independent energy source. 2b type muscle fiber is a glycolytic muscle fiber type, and includes only anaerobic energy source. Frozen sections stored in a deep freezer of -80° C. are washed with 1×PBS twice, and fixed with 4% paraformaldehyde at room temperature for 15 minutes, and then washed with 1×PBS twice. The tissue and a permeabilization buffer (0.2% Triton-X/PBS) are reacted at room temperature for 30 minutes, and washed with 1×PBS twice. The tissue and Proteinase K are reacted at 37° C. for 10 minutes for antigen retrieval, and washed with 1×PBS twice, and blocked in a blocking buffer (0.1% gelatin, 5% goat serum, 0.5% BSA, and 0.1% Triton-X) for 1 hr. As a primary antibody, a rabbit antibody specifically binding to MHC2a or MHC2b is diluted with the blocking buffer at a ratio of 1:500 and reacted at 4° C. for 12 hrs, followed by washing with 1×PBS twice. A secondary antibody, anti-rabbit antibody is reacted, followed by washing 1×PBS twice. After sealing, a fluorescence microscope (Nikon, body: Ti-u, camera: DS-RI1, program: NIS-elements BR 3.1) was used for analysis. Farnesol is administered to mice in the same manner as in Section 3 of Example 2, except that 22-month-old mice are used instead of 5-month-old mice and administration is performed for 4 months instead of 5 weeks, and changes in the skeletal muscle type are examined.

[3] = Glucose tolerance test of old mice; assay type: in vivo; settings: old mouse, 1 g/kg glucose i.p. after overnight fast
Description: (§2) 22-month-old female mice (weighing 30 g) are fed with a control diet and a farnesol diet for 4 months. That is, 22-month-old mice are fed for 4 months, and then 26-month-old mice are analyzed. […] The same mouse is used as a control group, except that it is fed with a diet containing no farnesol. Muscle strength, energy expenditure, glucose tolerance, and fat accumulation of each mouse are evaluated.

[4] = Fat mass ratio by dual-energy X-ray absorptiometry; assay type: in vivo; settings: old mouse, farnesol diet 4 months
Description: as §2
The fat mass ratio is determined by dual-energy X-ray absorptiometry (LUNA PIXIMUS, GE Healthcare/LUNA), and measured on combined images after radiation at 40 kV X-ray and 80 kV X-ray four times, respectively.

[5] = 0.1-100 uM tested, from 0.1 to 10 uM, FIG. 1B
[6] = farnesol-treated myoblasts, FIG. 1A
[7] = 5-month-old mice, farnesol orally 5 weeks

CC(C)=CCC/C(C)=C/CC/C(C)=C/CO [farnesol, (2E,6E)-3,7,11-trimethyldodeca-2,6,10-trien-1-ol]
expression of MHC according to farnesol concentration (C2C12 myoblasts; [5]): increased in myoblasts in a farnesol concentration-dependent manner | expression of PGC-1α according to farnesol concentration (C2C12 myoblasts; [5]): increased in myoblasts in a farnesol concentration-dependent manner | expression of myogenin according to farnesol concentration (C2C12 myoblasts; [5]): increased in myoblasts in a farnesol concentration-dependent manner | increase in PGC-1α gene expression compared to control group (C2C12 myoblasts; farnesol-treated myoblasts, 48 hours, FIG. 1A): about 2.8 times | expression of myoblast determination protein (MyoD) (C2C12 myoblasts; [6]): increased | expression of myosin heavy chain (MHC) (C2C12 myoblasts; [6]): increased | expression of troponin T gene (C2C12 myoblasts; [6]): increased | expression of PGC-1α in tibialis anterior muscle (PGC-1α): increased | expression of cytochrome C in tibialis anterior muscle (PGC-1α): increased | muscle fibers of gastrocnemius, soleus, extensor digitorum longus and tibialis anterior muscle (appearance) [1]: converted to red muscles having a high percentage of oxidative muscle fibers | diameter of oxidative 2a type muscle fiber in EDL [2, 7]: increased | number of glycolytic 2b type muscle fiber in EDL [2, 7]: decreased | number of oxidative 2a type muscle fiber in EDL [2, 7]: increased | number of oxidative 2a type muscle fiber in EDL compared to control ([2]; 22-month-old mice, farnesol 4 months): about 1.4 times | blood glucose level in glucose tolerance test [3]: remarkably low | fat mass ratio [4]: significantly decreased
